Assay results: patent US12173018B2, “Penicillin-binding protein inhibitors” (priority 2018, dated 2024)
pEC50: −log10 of the molar value. ≈ marks a conversion by molar mass, not a printed value.

What was measured:
E. coli PBP1a = E. coli PBP1a (Escherichia coli (strain K12), UniProt P02918); test: Radioligand competition binding assay with 14C-labeled boronic acid probe, PBP1a
How it was run: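 Purified E. coli PBP1a (0.1 μM) preincubated 60 min with test boronic acid inhibitor in 20 mM Tris pH 7.5, 500 mM NaCl, 0.1% Triton X-100, then 60 min with 20 μM ^14C-labeled boronic acid probe. Bound probe recovered by spin desalting and counted by scintillation; EC50 reported.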

E. coli PBP1b = E. coli PBP1b (Escherichia coli (strain K12), UniProt P02919); test: Radioligand competition binding assay with 14C-labeled boronic acid probe, PBP1b
[1] = tested on: E. coli DH5α empty pLBII vector control strain; test: microbe, parasite or virus in culture; format: cell-based, Escherichia coli; settings: Escherichia coli, read-out: Microbiological Activity (MIC in mg/L), E. coli DH5α/pLBII
How it was run: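 MIC was the lowest concentration visibly free of growth after 16–20 h at 37 °C, against 5×10^5 CFU/mL of the empty-pLBII DH5α control strain. Twofold compound dilutions were made in cation-adjusted Mueller-Hinton broth.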

E. coli PBP1b, sequence (P02919 whole entry): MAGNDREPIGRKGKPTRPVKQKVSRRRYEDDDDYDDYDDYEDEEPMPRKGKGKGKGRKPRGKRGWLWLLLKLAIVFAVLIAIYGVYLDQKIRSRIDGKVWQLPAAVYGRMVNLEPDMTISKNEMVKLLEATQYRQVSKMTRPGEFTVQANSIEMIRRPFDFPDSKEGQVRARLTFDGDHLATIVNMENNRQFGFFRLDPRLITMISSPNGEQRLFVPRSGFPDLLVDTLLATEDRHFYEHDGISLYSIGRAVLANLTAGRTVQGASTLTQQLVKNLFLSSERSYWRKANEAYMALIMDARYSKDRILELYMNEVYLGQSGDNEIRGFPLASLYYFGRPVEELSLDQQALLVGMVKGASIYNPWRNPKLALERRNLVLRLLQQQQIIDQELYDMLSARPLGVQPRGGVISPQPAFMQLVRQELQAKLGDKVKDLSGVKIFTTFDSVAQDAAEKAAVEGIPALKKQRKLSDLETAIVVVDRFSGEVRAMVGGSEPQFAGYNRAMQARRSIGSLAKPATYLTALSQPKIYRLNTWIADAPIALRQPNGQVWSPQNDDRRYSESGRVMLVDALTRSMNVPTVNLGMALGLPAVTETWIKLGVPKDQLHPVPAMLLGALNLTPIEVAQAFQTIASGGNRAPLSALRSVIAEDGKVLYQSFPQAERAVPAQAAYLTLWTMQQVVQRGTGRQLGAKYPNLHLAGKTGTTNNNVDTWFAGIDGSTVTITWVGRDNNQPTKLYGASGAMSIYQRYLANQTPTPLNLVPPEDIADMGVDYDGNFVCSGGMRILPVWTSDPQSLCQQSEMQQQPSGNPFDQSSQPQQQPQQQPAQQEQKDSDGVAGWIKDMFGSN
E. coli PBP1a, sequence (P02918 whole entry): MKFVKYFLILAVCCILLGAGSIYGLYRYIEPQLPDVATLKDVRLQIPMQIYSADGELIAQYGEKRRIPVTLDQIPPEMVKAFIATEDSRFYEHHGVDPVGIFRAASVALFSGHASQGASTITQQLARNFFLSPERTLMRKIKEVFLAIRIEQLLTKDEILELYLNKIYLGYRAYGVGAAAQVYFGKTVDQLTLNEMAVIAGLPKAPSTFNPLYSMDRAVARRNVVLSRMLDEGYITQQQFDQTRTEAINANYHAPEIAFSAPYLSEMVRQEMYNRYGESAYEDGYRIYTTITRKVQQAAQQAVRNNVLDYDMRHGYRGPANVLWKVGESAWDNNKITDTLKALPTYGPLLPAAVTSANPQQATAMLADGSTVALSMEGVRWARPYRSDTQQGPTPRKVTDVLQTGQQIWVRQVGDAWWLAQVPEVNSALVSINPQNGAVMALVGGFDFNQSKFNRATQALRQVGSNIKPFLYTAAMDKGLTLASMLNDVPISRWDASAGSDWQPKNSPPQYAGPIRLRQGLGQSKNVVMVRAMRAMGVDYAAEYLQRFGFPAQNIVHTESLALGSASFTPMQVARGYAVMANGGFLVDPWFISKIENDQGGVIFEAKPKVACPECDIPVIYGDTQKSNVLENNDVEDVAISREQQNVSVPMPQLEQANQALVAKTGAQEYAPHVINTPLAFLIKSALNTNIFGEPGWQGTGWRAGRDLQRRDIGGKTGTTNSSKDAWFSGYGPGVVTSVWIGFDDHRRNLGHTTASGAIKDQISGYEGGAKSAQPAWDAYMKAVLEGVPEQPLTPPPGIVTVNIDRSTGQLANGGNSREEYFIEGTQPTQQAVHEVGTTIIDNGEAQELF

| SMILES | pEC50 (E. coli PBP1a) | pEC50 (E. coli PBP1b) | MIC [1] [mg/L] |
| --- | --- | --- | --- |
| CCN1CCN(C(=O)NC(C(=O)N[C@H]2Cc3cccc(C(=O)O)c3OB2O)c2csc(N)n2)C(=O)C1=O (stereo partly drawn) [Example 5, (3R)-3-(2-(2-aminothiazol-4-yl)-2-(4-ethyl-2,3-dioxopiperazine-1-carboxamido)acetamido)-2-hydroxy-3,4-dihydro-2H-benzo[e][1,2]oxaborinine-8-carboxylic acid] | > 5.00 | > 5.00 |  |
| CCN1CCN(C(=O)NC(C(=O)N[C@H]2Cc3cc(F)cc(C(=O)O)c3OB2O)c2csc(N)n2)C(=O)C1=O (stereo partly drawn) [Example 16, (3R)-3-(2-(2-aminothiazol-4-yl)-2-(4-ethyl-2,3-dioxopiperazine-1-carboxamido)acetamido)-6-fluoro-2-hydroxy-3,4-dihydro-2H-benzo[e][1,2]oxaborinine-8-carboxylic acid] |  |  | 32 to 64 (≈ 58.4 to 117 µM) |
| CCN1CCN(C(=O)NC(C(=O)N[C@H]2Cc3cccc(C(=O)O)c3OB2O)c2ccc(O)cc2)C(=O)C1=O (stereo partly drawn) [Example 27, (3R)-3-(2-(4-ethyl-2,3-dioxopiperazine-1-carboxamido)-2-(4-hydroxyphenyl)acetamido)-2-hydroxy-3,4-dihydro-2H-benzo[e][1,2]oxaborinine-8-carboxylic acid] | > 5.00 |  | 8 to 16 (≈ 15.3 to 30.5 µM) |
| CCN1CCN(C(=O)NC(C(=O)N[C@H]2Cc3cccc(C(=O)O)c3OB2O)c2ccc(O)c(O)c2Cl)C(=O)C1=O (stereo partly drawn) [Example 37, (3R)-3-(2-(2-chloro-3,4-dihydroxyphenyl)-2-(4-ethyl-2,3-dioxopiperazine-1-carboxamido)acetamido)-2-hydroxy-3,4-dihydro-2H-benzo[e][1,2]oxaborinine-8-carboxylic acid] |  |  | 8 to 16 (≈ 13.9 to 27.8 µM) |
| CCN1CCN(C(=O)NC(C(=O)N[C@H]2Cc3cccc(C(=O)O)c3OB2O)c2cnc(N)s2)C(=O)C1=O (stereo partly drawn) [Example 51, (3R)-3-(2-(2-aminothiazol-5-yl)-2-(4-ethyl-2,3-dioxopiperazine-1-carboxamido)acetamido)-2-hydroxy-3,4-dihydro-2H-benzo[e][1,2]oxaborinine-8-carboxylic acid] |  | 4.00 to 5.00 | 8 to 16 (≈ 15.1 to 30.2 µM) |
| CCN1CCN(C(=O)NC(C(=O)N[C@H]2Cc3cccc(C(=O)O)c3OB2O)c2ccc(O)c(O)c2F)C(=O)C1=O (stereo partly shown) [Example 70] | > 5.00 |  |  |
| O=C(O)c1cccc2c1OB(O)[C@@H](NC(=O)C(NC(=O)N1CCN(CCF)C(=O)C1=O)c1ccc(O)c(O)c1Cl)C2 (stereo partly drawn) [Example 71, (3R)-3-(2-(2-chloro-3,4-dihydroxyphenyl)-2-(4-(2-fluoroethyl)-2,3-dioxopiperazine-1-carboxamido)acetamido)-2-hydroxy-3,4-dihydro-2H-benzo[e][1,2]oxaborinine-8-carboxylic acid] | > 5.00 | > 5.00 |  |
| CCCN1CCN(C(=O)NC(C(=O)N[C@H]2Cc3cccc(C(=O)O)c3OB2O)c2ccc(O)c(O)c2Cl)C(=O)C1=O (stereo partly drawn) [Example 82, (3R)-3-(2-(2-chloro-3,4-dihydroxyphenyl)-2-(2,3-dioxo-4-propylpiperazine-1-carboxamido)acetamido)-2-hydroxy-3,4-dihydro-2H-benzo[e][1,2]oxaborinine-8-carboxylic acid] |  | 4.00 to 5.00 |  |
| CCN1CCN(C(=O)NC(C(=O)N[C@H]2Cc3cccc(C(=O)O)c3OB2O)c2ccc(S(N)(=O)=O)cc2)C(=O)C1=O (stereo partly drawn) [Example 102, (3R)-3-(2-(4-ethyl-2,3-dioxopiperazine-1-carboxamido)-2-(4-sulfamoylphenyl)acetamido)-2-hydroxy-3,4-dihydro-2H-benzo[e][1,2]oxaborinine-8-carboxylic acid] | 4.00 to 5.00 |  |  |
| NS(=O)(=O)c1ccc(C(NC(=O)N2CCN(CCF)C(=O)C2=O)C(=O)N[C@H]2Cc3cccc(C(=O)O)c3OB2O)cc1 (stereo partly drawn) [Example 103, (3R)-3-(2-(4-(2-fluoroethyl)-2,3-dioxopiperazine-1-carboxamido)-2-(4-sulfamoylphenyl)acetamido)-2-hydroxy-3,4-dihydro-2H-benzo[e][1,2]oxaborinine-8-carboxylic acid] | 4.00 to 5.00 |  |  |
| CCN1CCN(C(=O)NC(C(=O)N[C@H]2Cc3cccc(C(=O)O)c3OB2O)c2cccc(N)n2)C(=O)C1=O (stereo partly drawn) [Example 104, (3R)-3-(2-(6-aminopyridin-2-yl)-2-(4-ethyl-2,3-dioxopiperazine-1-carboxamido)acetamido)-2-hydroxy-3,4-dihydro-2H-benzo[e][1,2]oxaborinine-8-carboxylic acid] |  | < 4.00 |  |
| CCN1CCN(C(=O)NC(C(=O)N[C@H]2Cc3cccc(C(=O)[O-])c3OB2O)c2ccc[n+](CC(N)=O)c2)C(=O)C1=O (stereo partly drawn) [Example 107, (3R)-3-(2-(1-(2-amino-2-oxoethyl)pyridin-1-ium-3-yl)-2-(4-ethyl-2,3-dioxopiperazine-1-carboxamido)acetamido)-2-hydroxy-3,4-dihydro-2H-benzo[e][1,2]oxaborinine-8-carboxylate] |  | < 4.00 |  |
| CCN1CCN(C(=O)NC(C(=O)N[C@H]2Cc3ccc(F)c(C(=O)O)c3OB2O)c2csc(N)n2)C(=O)C1=O (stereo partly drawn) [Example 109, (3R)-3-(2-(2-aminothiazol-4-yl)-2-(4-ethyl-2,3-dioxopiperazine-1-carboxamido)acetamido)-7-fluoro-2-hydroxy-3,4-dihydro-2H-benzo[e][1,2]oxaborinine-8-carboxylic acid] |  | < 4.00 |  |
| CCN1CCN(C(=O)N[C@@H](C(=O)N[C@H]2Cc3ccc(F)c(C(=O)O)c3OB2O)[C@@H](C)O)C(=O)C1=O [Example 110, (R)-3-((2R,3R)-2-(4-ethyl-2,3-dioxopiperazine-1-carboxamido)-3-hydroxybutanamido)-7-fluoro-2-hydroxy-3,4-dihydro-2H-benzo[e][1,2]oxaborinine-8-carboxylic acid] |  | < 4.00 |  |
| CCN1CCN(C(=O)NC(C(=O)N[C@H]2Cc3cccc(C(=O)O)c3OB2O)c2ccc(B(O)O)cc2)C(=O)C1=O (stereo partly shown) [Example 112] |  | < 4.00 |  |
| O=C(O)c1cccc2c1OB(O)[C@@H](NC(=O)C(NC(=O)N1CCN(CCF)C(=O)C1=O)c1ccc(B(O)O)cc1)C2 (stereo partly drawn) [Example 113, (3R)-3-(2-(4-boronophenyl)-2-(4-(2-fluoroethyl)-2,3-dioxopiperazine-1-carboxamido)acetamido)-2-hydroxy-3,4-dihydro-2H-benzo[e][1,2]oxaborinine-8-carboxylic acid] |  | < 4.00 |  |
| CCN1CCN(C(=O)NC(C(=O)N[C@H]2Cc3cccc(C(=O)O)c3OB2O)c2cccs2)C(=O)C1=O (stereo partly drawn) [Example 115, (3R)-3-(2-(4-ethyl-2,3-dioxopiperazine-1-carboxamido)-2-(thiophen-2-yl)acetamido)-2-hydroxy-3,4-dihydro-2H-benzo[e][1,2]oxaborinine-8-carboxylic acid] |  | < 4.00 |  |
| CCN1CCN(C(=O)NC(C(=O)N[C@H]2Cc3cccc(C(=O)O)c3OB2O)c2cccc(O)n2)C(=O)C1=O (stereo partly drawn) [Example 117, (3R)-3-(2-(4-ethyl-2,3-dioxopiperazine-1-carboxamido)-2-(6-hydroxypyridin-2-yl)acetamido)-2-hydroxy-3,4-dihydro-2H-benzo[e][1,2]oxaborinine-8-carboxylic acid] |  | < 4.00 |  |
| CCN1CCN(C(=O)NC(C(=O)N[C@H]2Cc3cccc(C(=O)O)c3OB2O)c2cnc(O)cn2)C(=O)C1=O (stereo partly drawn) [Example 121, (3R)-3-(2-(4-ethyl-2,3-dioxopiperazine-1-carboxamido)-2-(5-hydroxypyrazin-2-yl)acetamido)-2-hydroxy-3,4-dihydro-2H-benzo[e][1,2]oxaborinine-8-carboxylic acid] |  | < 4.00 |  |
| CCN1CCN(C(=O)NC(C(=O)N[C@H]2Cc3ccc(F)c(C(=O)O)c3OB2O)c2ccc(O)c(O)c2Cl)C(=O)C1=O (stereo partly drawn) [Example 124, (3R)-3-(2-(2-chloro-3,4-dihydroxyphenyl)-2-(4-ethyl-2,3-dioxopiperazine-1-carboxamido)acetamido)-7-fluoro-2-hydroxy-3,4-dihydro-2H-benzo[e][1,2]oxaborinine-8-carboxylic acid] |  | > 5.00 |  |
| CCCN1CCN(C(=O)NC(C(=O)N[C@H]2Cc3ccc(F)c(C(=O)O)c3OB2O)c2ccc(O)c(O)c2Cl)C(=O)C1=O (stereo partly shown) [Example 125] |  | > 5.00 |  |
| O=C(O)c1c(F)ccc2c1OB(O)[C@@H](NC(=O)C(NC(=O)N1CCN(CCF)C(=O)C1=O)c1ccc(O)c(O)c1Cl)C2 (stereo partly shown) [Example 131] |  | 4.00 to 5.00 |  |
| CCN1CCN(C(=O)NC(C(=O)N[C@H]2Cc3ccc(F)c(C(=O)O)c3OB2O)c2cc(O)c(O)cc2F)C(=O)C1=O (stereo partly drawn) [Example 136, (3R)-3-(2-(4-ethyl-2,3-dioxopiperazine-1-carboxamido)-2-(2-fluoro-4,5-dihydroxyphenyl)acetamido)-7-fluoro-2-hydroxy-3,4-dihydro-2H-benzo[e][1,2]oxaborinine-8-carboxylic acid] |  | 4.00 to 5.00 |  |
| CCN1CCN(C(=O)NC(C(=O)N[C@H]2Cc3ccc(F)c(C(=O)O)c3OB2O)c2ncc(O)cc2F)C(=O)C1=O (stereo partly drawn) [Example 145, (3R)-3-(2-(4-ethyl-2,3-dioxopiperazine-1-carboxamido)-2-(3-fluoro-5-hydroxypyridin-2-yl)acetamido)-7-fluoro-2-hydroxy-3,4-dihydro-2H-benzo[e][1,2]oxaborinine-8-carboxylic acid] |  | < 4.00 |  |
